# pKi: −log10 of the molar value.
# Target: T1, human vasopressin V1b receptor (Homo sapiens, UniProt P47901)
# T1 construct: expressed in transfected cells; host or cells: CHO-K1 (cell line hV1b_3H2_CHO), membrane preparation
# T1 sequence (P47901 1-424): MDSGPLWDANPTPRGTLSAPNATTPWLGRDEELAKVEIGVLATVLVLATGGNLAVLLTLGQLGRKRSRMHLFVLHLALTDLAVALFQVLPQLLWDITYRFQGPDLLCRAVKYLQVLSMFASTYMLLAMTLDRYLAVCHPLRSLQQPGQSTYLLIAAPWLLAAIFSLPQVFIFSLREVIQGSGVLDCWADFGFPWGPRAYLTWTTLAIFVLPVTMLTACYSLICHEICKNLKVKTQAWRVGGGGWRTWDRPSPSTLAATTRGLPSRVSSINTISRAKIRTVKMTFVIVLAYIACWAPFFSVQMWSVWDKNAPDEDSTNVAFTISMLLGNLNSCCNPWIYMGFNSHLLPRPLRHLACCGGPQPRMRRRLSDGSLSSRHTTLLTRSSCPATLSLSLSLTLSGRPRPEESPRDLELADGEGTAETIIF
# Experiment: Vasopressin V1b receptor binding test
# Conditions: membranes of CHO-K1 cells with human V1b receptor, displacement of 1.5 nM 3H-AVP; for compounds with more than one stereogenic center the diastereomer with greater affinity
# Outline: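 Radioligand displacement on membranes carrying human V1b receptor in 50 mM tris, 10 mM MgCl2, 0.1% BSA, pH 7.4, 2% DMSO final; 60 min at room temperature, nonspecific binding with 1 μM AVP. Free ligand removed by filtration, bound counted by liquid scintillation, Ki from nonlinear regression of triplicates.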
row,SMILES,pKi
1,"COc1ccc(S(=O)(=O)N2C(=O)C(c3cc(CN4CCN(C)CC4)ccc3OC)(N3CCC[C@H]3c3ncco3)c3cc(Cl)c(Cl)cc32)cc1 (stereo partly drawn) [Example 74, 5,6-Dichloro-1-(4-methoxybenzenesulfonyl)-3-[2-methoxy-5-(4-methylpiperazin-1-ylmethyl)phenyl]-3-((S)-2-oxazol-2-yl-pyrrolidin-1-yl)-1,3-dihydroindol-2-one]",7.00 to 8.00
2,"COc1ccc(S(=O)(=O)N2C(=O)C(c3cc(CN4CCNCC4)ccc3OC)(N3CCC[C@H]3c3ncco3)c3cc(Cl)c(Cl)cc32)cc1 (stereo partly drawn) [Example 75, 5,6-Dichloro-1-(4-methoxybenzenesulfonyl)-3-(2-methoxy-5-piperazin-1-ylmethylphenyl)-3-((S)-2-oxazol-2-yl-pyrrolidin-1-yl)-1,3-dihydroindol-2-one]",7.00 to 8.00
3,"COc1ccc(CN2CCN(C)CC2)cc1C1(N2CCC[C@H]2c2ncco2)C(=O)N(S(=O)(=O)c2ccc(F)cc2)c2ccc(Cl)cc21 (stereo partly drawn) [Example 82, 5-Chloro-1-(4-fluorobenzenesulfonyl)-3-[2-methoxy-5-(4-methylpiperazin-1-ylmethyl)phenyl]-3-((S)-2-oxazol-2-yl-pyrrolidin-1-yl)-1,3-dihydroindol-2-one]",6.00 to 7.00
4,"COc1ccc(S(=O)(=O)N2C(=O)C(c3cc(CN4CCN(C)CC4)ccc3OC)(N3CCC[C@H]3c3ncco3)c3cc(Cl)ccc32)cc1F (stereo partly drawn) [Example 87, 5-Chloro-1-(3-fluoro-4-methoxybenzenesulfonyl)-3-[2-methoxy-5-(4-methylpiperazin-1-ylmethyl)phenyl]-3-((S)-2-oxazol-2-yl-pyrrolidin-1-yl)-1,3-dihydroindol-2-one]",7.00 to 8.00
5,"COc1ccc(S(=O)(=O)N2C(=O)C(c3cc(CN4CCN(C(C)C)CC4)ccc3OC)(N3CCC[C@H]3c3ncco3)c3cc(Cl)ccc32)cc1 (stereo partly drawn) [Example 89, 5-Chloro-3-[5-(4-isopropylpiperazin-1-ylmethyl)-2-methoxyphenyl]-1-(4-methoxybenzenesulfonyl)-3-((S)-2-oxazol-2-yl-pyrrolidin-1-yl)-1,3-dihydroindol-2-one]",> 8.00
6,"COc1ccc(S(=O)(=O)N2C(=O)C(c3cc(CN4CCN(C(C)C)CC4)ccc3OC)(N3CCC[C@H]3c3ncco3)c3cc(C#N)ccc32)cc1 (stereo partly drawn) [Example 94, 5-Cyano-3-[5-(4-isopropylpiperazin-1-ylmethyl)-2-methoxyphenyl]-1-(4-methoxybenzenesulfonyl)-3-((S)-2-oxazol-2-yl-pyrrolidin-1-yl)-1,3-dihydroindol-2-one]",7.00 to 8.00
7,"COc1ccc(S(=O)(=O)N2C(=O)C(c3cc(CN4CCN(C(C)=O)CC4)ccc3OC)(N3CCC[C@H]3c3ncco3)c3cc(C#N)ccc32)cc1 (stereo partly drawn) [Example 95, 5-Cyano-3-[5-(4-acetylpiperazin-1-ylmethyl)-2-methoxyphenyl]-1-(4-methoxybenzenesulfonyl)-3-((S)-2-oxazol-2-yl-pyrrolidin-1-yl)-1,3-dihydroindol-2-one]",7.00 to 8.00

# Now from value to compound:
row,pKi,SMILES
1,7.00 to 8.00,"COc1ccc(S(=O)(=O)N2C(=O)C(c3cc(CN4CCCC4)ccc3OC)(N3CCC[C@H]3c3ncco3)c3cc(Cl)c(Cl)cc32)cc1 (stereo partly drawn) [Example 78, 5,6-Dichloro-1-(4-methoxybenzenesulfonyl)-3-(2-methoxy-5-pyrrolidin-1-ylmethylphenyl)-3-((S)-2-oxazol-2-yl-pyrrolidin-1-yl)-1,3-dihydroindol-2-one]"
2,7.00 to 8.00,"CCOc1ccc(S(=O)(=O)N2C(=O)C(c3cc(CN4CCN(C)CC4)ccc3OC)(N3CCC[C@H]3c3ncco3)c3cc(Cl)ccc32)cc1 (stereo partly drawn) [Example 80, 5-Chloro-1-(4-ethoxybenzenesulfonyl)-3-[2-methoxy-5-(4-methylpiperazin-1-ylmethyl)phenyl]-3-((S)-2-oxazol-2-yl-pyrrolidin-1-yl)-1,3-dihydroindol-2-one]"
3,7.00 to 8.00,"COc1ccc(CN2CCN(C)CC2)cc1C1(N2CCC[C@H]2c2ncco2)C(=O)N(S(=O)(=O)c2ccc(C#N)cc2)c2ccc(Cl)cc21 (stereo partly drawn) [Example 81, 5-Chloro-1-(4-cyanobenzenesulfonyl)-3-[2-methoxy-5-(4-methylpiperazin-1-ylmethyl)phenyl]-3-((S)-2-oxazol-2-yl-pyrrolidin-1-yl)-1,3-dihydroindol-2-one]"
4,6.00 to 7.00,"COc1ccc(CN2CCN(C)CC2)cc1C1(N2CCC[C@H]2c2ncco2)C(=O)N(S(=O)(=O)c2ccccc2)c2ccc(Cl)cc21 (stereo partly drawn) [Example 84, 1-(Benzenesulfonyl)-5-chloro-3-[2-methoxy-5-(4-methylpiperazin-1-ylmethyl)phenyl]-3-((S)-2-oxazol-2-yl-pyrrolidin-1-yl)-1,3-dihydroindol-2-one]"
5,7.00 to 8.00,"CCc1ccc(S(=O)(=O)N2C(=O)C(c3cc(CN4CCN(C)CC4)ccc3OC)(N3CCC[C@H]3c3ncco3)c3cc(Cl)ccc32)cc1 (stereo partly drawn) [Example 85, 5-Chloro-1-(4-ethylbenzenesulfonyl)-3-[2-methoxy-5-(4-methylpiperazin-1-ylmethyl)phenyl]-3-((S)-2-oxazol-2-yl-pyrrolidin-1-yl)-1,3-dihydroindol-2-one]"
6,7.00 to 8.00,"COc1ccc(S(=O)(=O)N2C(=O)C(c3cc(CN4CCN(C)CC4)ccc3OC)(N3CCC[C@H]3c3ncco3)c3cc(Cl)ccc32)c(OC)c1 (stereo partly drawn) [Example 86, 5-Chloro-1-(2,4-dimethoxybenzenesulfonyl)-3-[2-methoxy-5-(4-methylpiperazin-1-ylmethyl)phenyl]-3-((S)-2-oxazol-2-yl-pyrrolidin-1-yl)-1,3-dihydroindol-2-one]"
7,> 8.00,"CCN1CCN(Cc2ccc(OC)c(C3(N4CCC[C@H]4c4ncco4)C(=O)N(S(=O)(=O)c4ccc(OC)cc4)c4ccc(Cl)cc43)c2)CC1 (stereo partly drawn) [Example 88, 5-Chloro-3-[5-(4-ethylpiperazin-1-ylmethyl)-2-methoxyphenyl]-1-(4-methoxybenzenesulfonyl)-3-((S)-2-oxazol-2-yl-pyrrolidin-1-yl)-1,3-dihydroindol-2-one]"
8,7.00 to 8.00,"COc1ccc(S(=O)(=O)N2C(=O)C(c3cc(CN4CCN(C(C)=O)CC4)ccc3OC)(N3CCC[C@H]3c3ncco3)c3cc(Cl)ccc32)cc1 (stereo partly drawn) [Example 90, 3-[5-(4-Acetylpiperazin-1-ylmethyl)-2-methoxyphenyl]-5-chloro-1-(4-methoxybenzenesulfonyl)-3-((S)-2-oxazol-2-yl-pyrrolidin-1-yl)-1,3-dihydroindol-2-one]"
9,> 8.00,"COc1ccc(S(=O)(=O)N2C(=O)C(c3cc(CN4CCCN(C)CC4)ccc3OC)(N3CCC[C@H]3c3ncco3)c3cc(Cl)ccc32)cc1 (stereo partly drawn) [Example 91, 5-Chloro-1-(4-methoxybenzenesulfonyl)-3-[2-methoxy-5-(4-methyl-[1,4]diazepan-1-ylmethyl)phenyl]-3-((S)-2-oxazol-2-yl-pyrrolidin-1-yl)-1,3-dihydroindol-2-one]"
10,> 8.00,"COc1ccc(S(=O)(=O)N2C(=O)C(c3cc(CN4CCN(CCO)CC4)ccc3OC)(N3CCC[C@H]3c3ncco3)c3cc(Cl)ccc32)cc1 (stereo partly drawn) [Example 92, 5-Chloro-3-{5-[4-(2-hydroxyethyl)piperazin-1-ylmethyl]-2-methoxyphenyl}-1-(4-methoxybenzenesulfonyl)-3-((S)-2-oxazol-2-yl-pyrrolidin-1-yl)-1,3-dihydroindol-2-one]"
11,6.00 to 7.00,"COc1ccc(S(=O)(=O)N2C(=O)C(c3cc(CNCCO)ccc3OC)(N3CCC[C@H]3c3ncco3)c3ccc(Cl)cc32)cc1 (stereo partly drawn) [Example 93, 6-Chloro-3-{5-[(2-hydroxyethylamino)methyl]-2-methoxyphenyl}-1-(4-methoxybenzenesulfonyl)-3-((S)-2-oxazol-2-yl-pyrrolidin-1-yl)-1,3-dihydroindol-2-one]"
